Laboratory results reported in the NIST ThermoML archive (doi:10.1016/j.jct.2018.05.016).

Assay: mn = molality of the nth substance listed, in mol/kg
Conditions: 100 kPa, Liquid; for speed of sound: Frequency=3 MHz, Single path-length method; for mass density: Vibrating tube method

OCCO [1,2-ethanediol] + O
Conditions	mass density, m1 = 0.09889 [kg/m3]	mass density, m1 = 0.1989 [kg/m3]	mass density, m1 = 0.2997 [kg/m3]	mass density, m1 = 0.3948 [kg/m3]	mass density, m1 = 0.5016 [kg/m3]	speed of sound, m1 = 0.09889 [m/s]	speed of sound, m1 = 0.1989 [m/s]	speed of sound, m1 = 0.2997 [m/s]	speed of sound, m1 = 0.3948 [m/s]	speed of sound, m1 = 0.5016 [m/s]
293.15 K	999.06	999.88	1000.68	1001.41	1002.2	1485.3	1488.3	1491.2	1493.9	1496.8
303.15 K	996.47	997.26	998.03	998.73	999.48	1511.1	1513.8	1516.2	1518.7	1521.2

O [water] + OCC(O)CO
m2 = 0
Conditions	speed of sound [m/s]
298.15 K	1495.9
303.15 K	1508.5
308.15 K	1519.1

OCCOCCOCCO [triethylene glycol] + O
Conditions	mass density, m1 = 0.0965 [kg/m3]	mass density, m1 = 0.2002 [kg/m3]	mass density, m1 = 0.292 [kg/m3]	mass density, m1 = 0.3986 [kg/m3]	mass density, m1 = 0.4988 [kg/m3]	speed of sound, m1 = 0.0965 [m/s]	speed of sound, m1 = 0.2002 [m/s]	speed of sound, m1 = 0.292 [m/s]	speed of sound, m1 = 0.3986 [m/s]	speed of sound, m1 = 0.4988 [m/s]
293.15 K	1000.31	1002.46	1004.29	1006.36	1008.22	1489.9	1498	1504.8	1513.1	1520.5
303.15 K	997.73	999.86	1001.67	1003.69	1005.54	1514.9	1521.8	1528	1535.1	1541.7

OCC(O)CO [glycerol] + O
Conditions	mass density, 293.15 K [kg/m3]	mass density, 298.15 K [kg/m3]	mass density, 303.15 K [kg/m3]	mass density, 308.15 K [kg/m3]	speed of sound, 293.15 K [m/s]	speed of sound, 298.15 K [m/s]	speed of sound, 303.15 K [m/s]	speed of sound, 308.15 K [m/s]
m1 = 0.01	998.45	997.31	995.87	994.25	1483.2	1497	1509.3	1519.9
m1 = 0.03	998.87	997.71	996.3	994.68	1484	1497.8	1510	1520.6
m1 = 0.05	999.29	998.12	996.72	995.09	1484.8	1498.6	1510.7	1521.2

OCCOCCO [diethylene glycol] + O
Conditions	mass density, m1 = 0.09849 [kg/m3]	mass density, m1 = 0.1974 [kg/m3]	mass density, m1 = 0.295 [kg/m3]	mass density, m1 = 0.4101 [kg/m3]	mass density, m1 = 0.5006 [kg/m3]	speed of sound, m1 = 0.09849 [m/s]	speed of sound, m1 = 0.1974 [m/s]	speed of sound, m1 = 0.295 [m/s]	speed of sound, m1 = 0.4101 [m/s]	speed of sound, m1 = 0.5006 [m/s]
293.15 K	999.65	1001.03	1002.36	1003.86	1004.99	1487.7	1493.1	1498.1	1504.1	1508.3
303.15 K	997.07	998.39	999.64	1001.05	1002.15	1513.1	1517.6	1522	1526.9	1530.6

O [water] + OCCOCCO
Conditions	speed of sound [m/s]
303.15 K, m2 = 0	1508.5

O [water] + OCCOCCOCCO
Conditions	speed of sound [m/s]
303.15 K, m2 = 0	1508.5

O [water] + OCCO
Conditions	speed of sound [m/s]
303.15 K, m2 = 0	1508.5
